# Measured values reported in ChEMBL document CHEMBL3885881, “DrugMatrix”.
# Species: Rattus norvegicus
# Experiment: DrugMatrix - Regimen: Daily Repeat
# Assay type: toxicity, organism-based, Sprague-Dawley
# Parameters: regimen Daily Repeat, gender Male, age 6-8 weeks
# Conditions: in vivo, iv, vehicle 100 % SALINE; for ABSOLUTE BASOPHIL / ABSOLUTE EOSINOPHIL / ABSOLUTE LYMPHOCYTE / ABSOLUTE MONOCYTE / ABSOLUTE SEGMENTED NEUTROPHIL / BASOPHIL / EOSINOPHIL / ERYTHROCYTE COUNT / HEMATOCRIT / HEMOGLOBIN / LEUKOCYTE COUNT / LYMPHOCYTE / MEAN CORPUSCULAR HEMOGLOBIN / MEAN CORPUSCULAR HEMOGLOBIN CONCENTRATION / MEAN CORPUSCULAR VOLUME / MONOCYTE / NEUTROPHIL / NUCLEATED RED BLOOD CELLS / PLATELET COUNT: tissue Blood; for ALANINE AMINOTRANSFERASE / ALBUMIN / ALKALINE PHOSPHATASE / ASPARTATE AMINOTRANSFERASE / BLOOD UREA NITROGEN / CARBON DIOXIDE / CHLORIDE / CHOLESTEROL / CREATINE PHOSPHOKINASE / CREATININE / GLUCOSE / LACTATE DEHYDROGENASE / LIPASE / PHOSPHORUS / POTASSIUM / SODIUM / TOTAL BILIRUBIN / TOTAL PROTEIN / URIC ACID: tissue Plasma
# [1] = 2 mg/kg, 72 h, dose level High, time 3 day
# [2] = 2 mg/kg, 120 h, dose level High, time 5 day
# [3] = […], 72 h, dose 0.21 mg/Kg, dose level Low, time 3 day
# [4] = […], 120 h, dose 0.21 mg/Kg, dose level Low, time 5 day
compound,measurement,setting,value
O=C1c2c(O)ccc(O)c2C(=O)c2c(NCCNCCO)ccc(NCCNCCO)c21 [MITOXANTRONE],ABSOLUTE BASOPHIL,[1],0 CELLS/uL
same,ABSOLUTE EOSINOPHIL,[1],0 CELLS/uL
same,ABSOLUTE LYMPHOCYTE,[1],1529.67 CELLS/uL
same,ABSOLUTE MONOCYTE,[1],0 CELLS/uL
same,ABSOLUTE SEGMENTED NEUTROPHIL,[1],137 CELLS/uL
same,BASOPHIL,[1],0%
same,EOSINOPHIL,[1],0%
same,ERYTHROCYTE COUNT,[1],5.38 x10E6/uL
same,HEMATOCRIT,[1],34.37%
same,HEMOGLOBIN,[1],12.83 G/DL
same,LEUKOCYTE COUNT,[1],1.67 x10E3/uL
same,LYMPHOCYTE,[1],91.67%
same,MEAN CORPUSCULAR HEMOGLOBIN,[1],23.9 pg
same,MEAN CORPUSCULAR HEMOGLOBIN CONCENTRATION,[1],37.37 G/DL
same,MEAN CORPUSCULAR VOLUME,[1],63.87 fL
same,MONOCYTE,[1],0%
same,NEUTROPHIL,[1],8.33%
same,NUCLEATED RED BLOOD CELLS,[1],0 /100WBC
same,PLATELET COUNT,[1],1484 x10E3/uL
same,ALANINE AMINOTRANSFERASE,[1],42.67 u/L
same,ALBUMIN,[1],4.43 G/DL
same,ALKALINE PHOSPHATASE,[1],444 u/L
same,ASPARTATE AMINOTRANSFERASE,[1],64 u/L
same,BLOOD UREA NITROGEN,[1],15.67 mg/dL
same,CARBON DIOXIDE,[1],23 mmol/L
same,CHLORIDE,[1],104.67 MEQ/L
same,CHOLESTEROL,[1],79.33 mg/dL
same,CREATINE PHOSPHOKINASE,[1],220.67 u/L
same,CREATININE,[1],0.17 mg/dL
same,GLUCOSE,[1],180.33 mg/dL
same,LACTATE DEHYDROGENASE,[1],145 u/L
same,LIPASE,[1],10 u/L
same,PHOSPHORUS,[1],12.2 mg/dL
same,POTASSIUM,[1],5.98 MEQ/L
same,SODIUM,[1],146.2 MEQ/L
same,TOTAL BILIRUBIN,[1],0.13 mg/dL
same,TOTAL PROTEIN,[1],6.1 G/DL
same,URIC ACID,[1],2.67 mg/dL
same,ABSOLUTE BASOPHIL,[2],0 CELLS/uL
same,ABSOLUTE EOSINOPHIL,[2],0 CELLS/uL
same,ABSOLUTE LYMPHOCYTE,[2],1225 CELLS/uL
same,ABSOLUTE MONOCYTE,[2],0 CELLS/uL
same,ABSOLUTE SEGMENTED NEUTROPHIL,[2],8.33 CELLS/uL
same,BASOPHIL,[2],0%
same,EOSINOPHIL,[2],0%
same,ERYTHROCYTE COUNT,[2],5.82 x10E6/uL
same,HEMATOCRIT,[2],35.23%
same,HEMOGLOBIN,[2],13.37 G/DL
same,LEUKOCYTE COUNT,[2],1.23 x10E3/uL
same,LYMPHOCYTE,[2],99.33%
same,MEAN CORPUSCULAR HEMOGLOBIN,[2],23.07 pg
same,MEAN CORPUSCULAR HEMOGLOBIN CONCENTRATION,[2],37.97 G/DL
same,MEAN CORPUSCULAR VOLUME,[2],60.73 fL
same,MONOCYTE,[2],0%
same,NEUTROPHIL,[2],0.67%
same,NUCLEATED RED BLOOD CELLS,[2],0 /100WBC
same,PLATELET COUNT,[2],946 x10E3/uL
same,ALANINE AMINOTRANSFERASE,[2],32.33 u/L
same,ALBUMIN,[2],3.37 G/DL
same,ALKALINE PHOSPHATASE,[2],255.33 u/L
same,ASPARTATE AMINOTRANSFERASE,[2],47.67 u/L
same,BLOOD UREA NITROGEN,[2],15.67 mg/dL
same,CARBON DIOXIDE,[2],29.33 mmol/L
same,CHLORIDE,[2],105 MEQ/L
same,CHOLESTEROL,[2],107 mg/dL
same,CREATINE PHOSPHOKINASE,[2],271.67 u/L
same,CREATININE,[2],0.12 mg/dL
same,GLUCOSE,[2],142.33 mg/dL
same,LACTATE DEHYDROGENASE,[2],141.33 u/L
same,LIPASE,[2],9.67 u/L
same,PHOSPHORUS,[2],11.97 mg/dL
same,POTASSIUM,[2],6.74 MEQ/L
same,SODIUM,[2],146.57 MEQ/L
same,TOTAL BILIRUBIN,[2],0.1 mg/dL
same,TOTAL PROTEIN,[2],5.2 G/DL
same,URIC ACID,[2],1.33 mg/dL
same,ABSOLUTE BASOPHIL,[3],0 CELLS/uL
same,ABSOLUTE EOSINOPHIL,[3],34.67 CELLS/uL
same,ABSOLUTE LYMPHOCYTE,[3],7414.67 CELLS/uL
same,ABSOLUTE MONOCYTE,[3],92.67 CELLS/uL
same,ABSOLUTE SEGMENTED NEUTROPHIL,[3],224.67 CELLS/uL
same,BASOPHIL,[3],0%
same,EOSINOPHIL,[3],0.33%
same,ERYTHROCYTE COUNT,[3],5.52 x10E6/uL
same,HEMATOCRIT,[3],34.13%
same,HEMOGLOBIN,[3],12.87 G/DL
same,LEUKOCYTE COUNT,[3],7.77 x10E3/uL
same,LYMPHOCYTE,[3],96%
same,MEAN CORPUSCULAR HEMOGLOBIN,[3],23.37 pg
same,MEAN CORPUSCULAR HEMOGLOBIN CONCENTRATION,[3],37.73 G/DL
same,MEAN CORPUSCULAR VOLUME,[3],61.87 fL
same,MONOCYTE,[3],1%
same,NEUTROPHIL,[3],2.67%
same,NUCLEATED RED BLOOD CELLS,[3],0 /100WBC
same,PLATELET COUNT,[3],1537 x10E3/uL
same,ALANINE AMINOTRANSFERASE,[3],46 u/L
same,ALBUMIN,[3],4.5 G/DL
same,ALKALINE PHOSPHATASE,[3],370.67 u/L
same,ASPARTATE AMINOTRANSFERASE,[3],75 u/L
same,BLOOD UREA NITROGEN,[3],14.33 mg/dL
same,CARBON DIOXIDE,[3],24 mmol/L
same,CHLORIDE,[3],103.33 MEQ/L
same,CHOLESTEROL,[3],77.33 mg/dL
same,CREATINE PHOSPHOKINASE,[3],192 u/L
same,CREATININE,[3],0.24 mg/dL
same,GLUCOSE,[3],163 mg/dL
same,LACTATE DEHYDROGENASE,[3],207.67 u/L
same,LIPASE,[3],9.67 u/L
same,PHOSPHORUS,[3],13.57 mg/dL
same,POTASSIUM,[3],7.01 MEQ/L
same,SODIUM,[3],145.1 MEQ/L
same,TOTAL BILIRUBIN,[3],0.23 mg/dL
same,TOTAL PROTEIN,[3],6.23 G/DL
same,URIC ACID,[3],2.6 mg/dL
same,ABSOLUTE BASOPHIL,[4],0 CELLS/uL
same,ABSOLUTE EOSINOPHIL,[4],26.67 CELLS/uL
same,ABSOLUTE LYMPHOCYTE,[4],5180 CELLS/uL
same,ABSOLUTE MONOCYTE,[4],42.67 CELLS/uL
same,ABSOLUTE SEGMENTED NEUTROPHIL,[4],217.33 CELLS/uL
same,BASOPHIL,[4],0%
same,EOSINOPHIL,[4],0.67%
same,ERYTHROCYTE COUNT,[4],5.12 x10E6/uL
same,HEMATOCRIT,[4],32.83%
same,HEMOGLOBIN,[4],12.5 G/DL
same,LEUKOCYTE COUNT,[4],5.47 x10E3/uL
same,LYMPHOCYTE,[4],94.33%
same,MEAN CORPUSCULAR HEMOGLOBIN,[4],24.47 pg
same,MEAN CORPUSCULAR HEMOGLOBIN CONCENTRATION,[4],38.1 G/DL
same,MEAN CORPUSCULAR VOLUME,[4],64.27 fL
same,MONOCYTE,[4],1%
same,NEUTROPHIL,[4],4%
same,NUCLEATED RED BLOOD CELLS,[4],0.33 /100WBC
same,PLATELET COUNT,[4],1671.33 x10E3/uL
same,ALANINE AMINOTRANSFERASE,[4],42.33 u/L
same,ALBUMIN,[4],4.27 G/DL
same,ALKALINE PHOSPHATASE,[4],328.67 u/L
same,ASPARTATE AMINOTRANSFERASE,[4],67 u/L
same,BLOOD UREA NITROGEN,[4],15 mg/dL
same,CARBON DIOXIDE,[4],24.33 mmol/L
same,CHLORIDE,[4],107.67 MEQ/L
same,CHOLESTEROL,[4],77.67 mg/dL
same,CREATINE PHOSPHOKINASE,[4],193.33 u/L
same,CREATININE,[4],0.25 mg/dL
same,GLUCOSE,[4],163.33 mg/dL
same,LACTATE DEHYDROGENASE,[4],101 u/L
same,LIPASE,[4],12 u/L
same,PHOSPHORUS,[4],11.77 mg/dL
same,POTASSIUM,[4],6.53 MEQ/L
same,SODIUM,[4],146.7 MEQ/L
same,TOTAL BILIRUBIN,[4],0.2 mg/dL
same,TOTAL PROTEIN,[4],5.87 G/DL
same,URIC ACID,[4],1.8 mg/dL
